Experimental data reported in patent US5665760A, “Lyophilized thioxanthenone antitumor agents” (priority 1995, dated 1997).
Structures can show the parent of a compound that is named as a salt.

System: pancreatic ductal adenocarcinoma #03
Experiment: antitumor activity in mice against pancreatic ductal adenocarcinoma #03 (Panc 03)
Assay type: in vivo
Protocol: Representative examples of the invention were tested for antitumor activity in mice according to the following procedure:
The animals were pooled, implanted subcutaneously with 30 to 60 mg tumor fragments by 12-gauge trocar, and again pooled before unselective distribution to the various treatment and control groups. For early-stage treatment, chemotherapy was started within 1 to 5 days after tumor implantation while the number of cells was relatively small (10^7 to 10^8 cells). For advanced-stage treatment, chemotherapy was delayed until the tumor became relatively large (200 to 300 mg in size). A 300-mg tumor contains approximately 3×10^8 total cells. […] Tumors were measured with a caliper weekly (or twice weekly for the more rapidly growing tumors). Mice were sacrificed when their tumors reached 1500 mg (i.e., before they can cause the animal discomfort). Tumor weights were estimated from two-dimensional measurements.
The treatment and control groups were measured when the control group tumors reached approximately 700 to 1200 mg in size (Median of Group). The median tumor weight of each group was determined (including zeros). […] A T/C value <10% is considered to indicate highly significant antitumor activity.
The results are shown in Table I for pancreatic ductal adenocarcinoma #03 and in Table 2 for colon adenocarcinoma #38.

[1] = Table 1, average body weight 25 g, total doses as in E1

Row | SMILES | T/C | Weight Loss [1] | Drug Deaths (Table 1, total doses as in E1) | Weight Loss (mouse, in vivo)
1 | CCN(CC)CCNc1ccc(C=Nc2ccccc2)c2sc3ccccc3c(=O)c12 [Example 1, 1-[[2-(Diethylamino)ethyl]amino]-4-(N-phenylformimidoyl)thioxanthen-9-one] | 0% | 1.6 g | 0 | 
2 | CCN(CC)CCNc1ccc(CNS(C)(=O)=O)c2sc3ccc(O)cc3c(=O)c12 [Example 37, N-[[1-(2-Diethylamino)ethyl]amino]-7-hydroxy-9-oxothioxanthen-4-yl]methyl]methanesulfonamide·3/4 hydrate] | 7% |  | 0 | 0 g
3 | CCN(CC)CCNc1ccc(CNS(=O)(=O)c2ccc(Cl)c(Cl)c2)c2sc3ccccc3c(=O)c12 [Example 26, N-[[1-[[2-(Diethylamino)ethyl]amino]-9-oxothioxanthen-4-yl]methyl]-3,4-dichlorobenzenesulfonamide methanesulfonate·1/2 hydrate] | 13% |  | 0 | 2.2 g
4 | CCN(CC)CCNc1ccc(CN(C)S(C)(=O)=O)c2sc3ccccc3c(=O)c12 [Example 8, N-[[1-[[2-(Diethylamino)ethyl)amino]-9-oxothioxanthen-yl]methyl]N-methylmethanesulfonamide] | 0% |  | 0 | 0.8 g
5 | CN(C)CCNc1ccc(CNS(C)(=O)=O)c2sc3ccccc3c(=O)c12.CS(=O)(=O)O [18(f), N-[[1-[[2-(Dimethylamino)ethyl]amino]-9-oxothioxanthen-4-yl]methyl]methanesulfonamide methanesulfonate] |  | 5.2 g | 2/5 | 
6 | CCN(CC)CCNc1ccc(CNS(=O)(=O)c2ccc(OC)cc2)c2sc3ccccc3c(=O)c12.CS(=O)(=O)O [Example 23, N-[[1-[[2-(Diethylamino)ethyl]amino]-9-oxothioxanthen-4-yl]methyl](p-methoxy)benzenesulfonamide methanesulfonate] | 20% | 2.4 g | 0 | 
7 | CCOP(=O)(NCc1ccc(NCCN(CC)CC)c2c(=O)c3ccccc3sc12)OCC [Example 12] |  | 3.2 g | 0 | 
8 | CCN(CC)CCNc1ccc(CNS(=O)(=O)c2ccccc2)c2sc3ccccc3c(=O)c12 [Example 9, N-[[1-[[2-(Diethylamino)ethyl]amino]-9-oxothioxanthen-4-yl]methyl]phenylsulfonamide] | 8% | 1.6 g | 0 | 
9 | CCCN(Cc1ccc(NCCN(CC)CC)c2c(=O)c3ccccc3sc12)S(C)(=O)=O [Example 28, N-[[1-[[2-(Diethylamino)ethyl]amino]-9-oxothioxanthen-4-yl]methyl]-N-propyl-methanesulfonamide] | 0% | 2.8 g | 0 | 
10 | CCNCc1ccc(NCCN(CC)CC)c2c(=O)c3ccccc3sc12 [Example 14, 1-[[2-(Diethylamino)ethyl]amino]-4-[(ethylamino)-methyl]thioxanthen-9-one] | 0% | 1.2 g | 0 | 
11 | CCN(CC)CCNc1ccc(CN(C)S(=O)(=O)CC)c2sc3ccccc3c(=O)c12.CS(=O)(=O)O [Example 22, N-[[1-[[2-(Diethylamino)ethyl]amino]-9-oxothioxanthen-4-yl]methyl]-N-methyl-ethanesulfonamide methanesulfonate] | 0% | 3.2 g | 0 | 
12 | CCN(CC)CCNc1ccc(CN=CN(C)C)c2sc3ccccc3c(=O)c12 [Example 15, 1-[[2-(Diethylamino)]ethyl]amino]-4-(dimethylaminomethylene-aminomethyl)-thioxanthen-9-one trihydrochloride] | 0% |  | 0 | 2.0 g
13 | CCN(CC)CCNc1ccc(CNS(C)(=O)=O)c2sc3ccc(Br)cc3c(=O)c12 [Example 33, N-[[1-[[2-(Diethylamino)ethyl]amino]-7-bromo-9-oxothioxanthen-4-yl]methyl]methanesulfonamide] | 28% | 2.0 g | 0 | 
14 | CCN(CC)CCNc1ccc(CN(C)S(=O)(=O)c2ccccc2)c2sc3ccccc3c(=O)c12.CS(=O)(=O)O [Example 29, N-[[1-[[2-(Diethylamino)ethyl]amino]-9-oxothioxanthen-4-yl]methyl]-N-methyl-benzenesulfonamide methanesulfonate] | 6% | 2.4 g | 0 | 
15 | CCN(CC)CCNc1ccc(CN)c2sc3ccccc3c(=O)c12 [Example 4, 4-(Aminomethyl)-1-[[2-(diethylamino)ethyl]amino]-thioxanthen-9-one] | 0% | 0.4 g | 0 | 
16 | CNCc1ccc(NCCN(C)C)c2c(=O)c3ccccc3sc12 [20(b), 1-[[2-(Dimethylamino)ethyl]amino]-4-[(methylamino)-methyl]thioxanthen-9-onedihydrochloride-5/4 hydrate] | 10% |  | 0 | 0.4 g
17 | CN(C)CCCNc1ccc(CNS(C)(=O)=O)c2sc3ccccc3c(=O)c12 [21(c), N-[[1-[[3-(Dimethylamino)propyl]amino]-9-oxothioxanthen-4-yl]methyl]methanesulfonamide methanesulfonate·1/2 hydrate] | 0% |  | 0 | 4.5 g
18 | CNCc1ccc(NCCCN(C)C)c2c(=O)c3ccccc3sc12 [19(e), 1-[[3-(Dimethylamino)propyl]amino]-4-[(methylaminomethyl]thioxanthen-9-one dihydrochloride monohydrate] | 4% |  | 0 | 3.4 g
19 | CCN(CC)CCNc1ccc(CNS(=O)(=O)c2ccccc2F)c2sc3ccccc3c(=O)c12 [Example 27, N-[[1-[[2-(Diethylamino)ethyl]amino]-9-oxothioxanthen-4-yl]methyl]-2-fluorobenzenesulfonamide] | 5% | +0.8 g | 0 | 
20 | CCN(CC)CCNc1ccc(CNS(=O)(=O)CC)c2sc3ccccc3c(=O)c12.CS(=O)(=O)O [Example 24, N-[[1-[[2-(Diethylamino)ethyl]amino]-9-oxothioxanthen-4-yl]methyl]ethanesulfonamide methanesulfonate] | 0% | 2.3 g | 0 | 
